Measurements reported in patent US8158656B2, “2-indolinone derivatives as multi-target protein kinase inhibitors and histone deacetylase inhibitors” (Shenzhen Chipscreen Biosciences Ltd., priority 2008, dated 2012).

Each compound was assayed against T1, Flt3 (Homo sapiens, UniProt P36888) (assay: Flt3 kinase ELISA bioassay). Conditions: ELISA kinase assay, 200 μM ATP.
T1 construct: purchased Cell Signaling
T1 sequence (P36888 27-993): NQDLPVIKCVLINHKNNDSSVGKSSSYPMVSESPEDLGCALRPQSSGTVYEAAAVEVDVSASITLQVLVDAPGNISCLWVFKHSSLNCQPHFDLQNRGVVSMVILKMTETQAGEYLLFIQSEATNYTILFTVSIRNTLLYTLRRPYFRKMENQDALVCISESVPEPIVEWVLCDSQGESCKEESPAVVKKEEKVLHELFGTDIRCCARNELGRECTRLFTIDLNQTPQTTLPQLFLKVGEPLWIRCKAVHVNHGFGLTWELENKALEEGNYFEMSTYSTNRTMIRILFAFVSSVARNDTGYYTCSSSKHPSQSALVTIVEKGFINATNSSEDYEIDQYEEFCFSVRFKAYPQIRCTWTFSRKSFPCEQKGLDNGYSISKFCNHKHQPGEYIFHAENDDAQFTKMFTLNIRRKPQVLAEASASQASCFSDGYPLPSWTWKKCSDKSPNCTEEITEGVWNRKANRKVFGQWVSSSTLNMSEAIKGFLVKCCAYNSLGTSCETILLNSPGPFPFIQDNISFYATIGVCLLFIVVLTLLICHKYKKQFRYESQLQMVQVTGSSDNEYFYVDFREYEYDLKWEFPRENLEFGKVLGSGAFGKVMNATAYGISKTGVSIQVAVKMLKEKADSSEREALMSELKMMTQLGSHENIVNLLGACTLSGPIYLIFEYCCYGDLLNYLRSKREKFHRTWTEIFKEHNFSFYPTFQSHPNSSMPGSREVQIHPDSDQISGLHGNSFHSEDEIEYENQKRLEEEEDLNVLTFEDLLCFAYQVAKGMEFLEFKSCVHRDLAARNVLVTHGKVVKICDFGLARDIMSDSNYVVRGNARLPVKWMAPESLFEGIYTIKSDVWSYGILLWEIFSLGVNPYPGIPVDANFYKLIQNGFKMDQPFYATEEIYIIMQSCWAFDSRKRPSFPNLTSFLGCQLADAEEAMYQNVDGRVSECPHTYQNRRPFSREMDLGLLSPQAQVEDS
Type: biochemical
Description: This assay is used to measure in vitro kinase activity of Flt3 in an ELISA assay.
• 1. Streptavidin coated, 96-well, white plate • 2. Phospho-Tyrosine Monoclonal Antibody (P-Tyr-100) (Cell Signaling) • 3. HRP-labeled anti-mouse IgG (Upstate) • 4. HTScan™ Tyrosine Kinase Buffer (4×) • 5. DTT (1000×. 1.25 M) • 6. ATP (10 mM) • 7. KDR (Tyr996) Biotinylated Peptide Substrate (Cell Signaling) • 8. Flt3 Kinase (recombinant, human) (Cell Signaling) • 9. Wash Buffer: 1× PBS, 0.05% Tween-20 (PBS/T) • 10. Bovine Serum Albumin (BSA) • 11. Stop Buffer: 50 mM EDTA pH 8 • 12. Enhanced chemiluminescence (ECL) (Amersham) Procedure for performing the assay in 96-well plate: • 1. Add 10 μl 10 mM ATP to 1.25 ml 6 μM substrate peptide. Dilute the mixture with dH20 to 2.5 ml to make 2× ATP/substrate cocktail ([ATP]=[…], [substrate]=3 μm). • 2. Immediately transfer enzyme from −80° C. to ice. Allow enzyme to thaw on ice. • 3. Microcentrifuge briefly at 4° C. to bring liquid to the bottom of the vial. Return immediately to ice. • 4. Add 10 μl of DTT (1.25 M) to 2.5 ml of 4× HTScan™ Tyrosine Kinase Buffer (240 mM HEPES pH 7.5, 20 mM MgCl2, 20 mM MnCl2, 12 μM Na3VO4) to make DTT/Kinase buffer. • 5. Transfer 1.25 ml of DTT/Kinase buffer to enzyme tube to make 4× reaction cocktail ([enzyme]=4 ng/μL in 4× reaction cocktail). • 6. Incubate 12.5 μl of the 4× reaction cocktail with 12.5 μl/well of prediluted compound of interest (usually around 10 μM) for 5 minutes at room temperature. • 7. Add 25 μl of 2× ATP/substrate cocktail to 25 μl/well preincubated reaction cocktail/compound. Final Assay Conditions for a 50 μl Reaction: • 60 mM HEPES pH 7.5 • 5 mM MgCl2 • 5 mM MnCl2 • 3 μM Na3VO4 • 1.25 mM DTT • […] • 1.5 μM peptide • 10 units Flt3 Kinase • 8. Incubate reaction plate at room temperature for 30 minutes. • 9. Add 50 μl/well Stop Buffer (50 mM EDTA, pH 8) to stop the reaction. • 10. Transfer 50 μl of each reaction and 50 μl dH2O/well to a 96-well streptavidincoated plate and incubate at room temperature for 60 minutes. • 11. Wash three times with 200 μl/well PBS/T • 12. Dilute primary antibody, Phospho-Tyrosine Monoclonal Antibody (P-Tyr-100), 1:1000 in PBS/T with 1% BSA. Add 100 μl/well of primary antibody. • 13. Incubate at room temperature for 60 minutes. • 14. Wash three times with 200 μl/well PBS/T • 15. Dilute HRP labeled anti-mouse IgG 1:500 in PBS/T with 1% BSA. Add 100 μl/well diluted antibody. • 16. Incubate at room temperature for 30 minutes. • 17. Wash five times with 200 μl/well PBS/T. • 18. Add 100 μl/well ECL Solution. • 19. Detect luminescence with appropriate Plate Reader.

Row | SMILES | IC50 [nM]
1 | Cc1[nH]c(/C=N/N=C2\C(=O)Nc3ccc(F)cc32)c(C)c1C(=O)NCCCNc1ccc(C(=O)Nc2ccccc2N)cn1 [Example 7, N-(2-aminophenyl)-6-(3-(2-(((5-fluoro-2-oxoindolin-3-ylidene)hydrazono)-methyl)-3,5-dimethyl-1H-pyrrole-4-carboxamido)propylamino)nicotinamide] | 451
2 | Cc1[nH]c(/C=N/N=C2\C(=O)Nc3ccc(F)cc32)c(C)c1C(=O)NCCCCNc1ccc(C(=O)Nc2ccc(F)cc2N)cn1 [Example 20, N-(2-amino-4-fluorophenyl)-6-(4-(2-(((5-fluoro-2-oxoindolin-3-ylidene)-hydrazono)methyl)-3,5-dimethyl-1H-pyrrole-4-carboxamido)butylamino)nicotinamide] | > 1000
3 | Cc1[nH]c(/C=C2\C(=O)Nc3ccc(F)cc32)c(C)c1C(=O)NCCCCNc1ccc(C(=O)Nc2ccccc2N)cn1 [Example 9, (Z)-N-(2-aminophenyl)-6-(4-(2-((5-fluoro-2-oxoindolin-3-ylidene)methyl)-3,5-dimethyl-1H-pyrrole-4-carboxamido)butylamino)nicotinamide] | 25
4 | Cc1[nH]c(/C=N/N=C2\C(=O)Nc3ccc(F)cc32)c(C)c1C(=O)NCCCNc1ccc(C(=O)Nc2ccc(F)cc2N)cn1 [Example 17, N-(2-amino-4-fluorophenyl)-6-(3-(2-(((5-fluoro-2-oxoindolin-3-ylidene)-hydrazono)methyl)-3,5-dimethyl-1H-pyrrole-4-carboxamido)propylamino)nicotinamide] | > 1000
5 | Cc1[nH]c(/C=C2\C(=O)Nc3ccc(F)cc32)c(C)c1C(=O)NCCCCNc1ccc(C(=O)Nc2ccc(F)cc2N)cn1 [Example 19, (Z)-N-(2-amino-4-fluorophenyl)-6-(4-(2-((5-fluoro-2-oxoindolin-3-ylidene)-methyl)-3,5-dimethyl-1H-pyrrole-4-carboxamido)butylamino)nicotinamide] | 21
6 | Cc1[nH]c(/C=N/N=C2\C(=O)Nc3ccc(F)cc32)c(C)c1C(=O)NCCCCNc1ccc(C(=O)Nc2ccccc2N)cn1 [Example 10, N-(2-aminophenyl)-6-(4-(2-(((5-fluoro-2-oxoindolin-3-ylidene)hydrazono)-methyl)-3,5-dimethyl-1H-pyrrole-4-carboxamido)butylamino)nicotinamide] | > 1000
7 | Cc1[nH]c(/C=C2\C(=O)Nc3ccc(F)cc32)c(C)c1C(=O)NCCCNc1ccc(C(=O)Nc2ccc(F)cc2N)cn1 [Example 16, (Z)-N-(2-amino-4-fluorophenyl)-6-(3-(2-((5-fluoro-2-oxoindolin-3-ylidene)-methyl)-3,5-dimethyl-1H-pyrrole-4-carboxamido)propylamino)nicotinamide] | 623

The next lines start with the values.

Row | IC50 [nM] | SMILES
8 | 432 | Cc1[nH]c(/C=N/N=C2\C(=O)Nc3ccc(F)cc32)c(C)c1C(=O)NCCNc1ccc(C(=O)Nc2ccc(F)cc2N)cn1 [Example 14, N-(2-amino-4-fluorophenyl)-6-(2-(2-(((5-fluoro-2-oxoindolin-3-ylidene)-hydrazono)methyl)-3,5-dimethyl-1H-pyrrole-4-carboxamido)ethylamino)nicotinamide]
9 | 132 | Cc1[nH]c(/C=C2\C(=O)Nc3ccc(F)cc32)c(C)c1C(=O)NCCCNc1ccc(C(=O)Nc2ccccc2N)cn1 [Example 6, (Z)-N-(2-aminophenyl)-6-(3-(2-((5-fluoro-2-oxoindolin-3-ylidene)methyl)-3,5-dimethyl-1H-pyrrole-4-carboxamido)propylamino)nicotinamide]
10 | 76 | Cc1[nH]c(/C=C2\C(=O)Nc3ccc(F)cc32)c(C)c1C(=O)NCCNc1ccc(C(=O)Nc2ccccc2N)cn1 [Example 3, (Z)-N-(2-aminophenyl)-6-(2-(2-((5-fluoro-2-oxoindolin-3-ylidene)methyl)-3,5-dimethyl-1H-pyrrole-4-carboxamido)ethylamino)nicotinamide]
11 | 63 | Cc1[nH]c(/C=C2\C(=O)Nc3ccc(F)cc32)c(C)c1C(=O)NCCNc1ccc(C(=O)Nc2ccc(F)cc2N)cn1 [Example 13, (Z)-N-(2-amino-4-fluorophenyl)-6-(2-(2-((5-fluoro-2-oxoindolin-3-ylidene)-methyl)-3,5-dimethyl-1H-pyrrole-4-carboxamido)ethylamino)nicotinamide]
12 | 870 | Cc1[nH]c(/C=N/N=C2\C(=O)Nc3ccc(F)cc32)c(C)c1C(=O)NCCNc1ccc(C(=O)Nc2ccccc2N)cn1 [Example 4, N-(2-aminophenyl)-6-(2-(2-(((5-fluoro-2-oxoindolin-3-ylidene)hydrazono)-methyl)-3,5-dimethyl-1H-pyrrole-4-carboxamido)ethylamino)nicotinamide]
